Results: PMC9576757, “A small molecule inhibitor of the UBE2F-CRL5 axis induces apoptosis and radiosensitization in lung cancer” (Signal Transduction and Targeted Therapy, 2022)
Residue numbers refer to the chain shown, from its start.

Experiments:
UBE2F [1] = molecular target: T1, UBE2F (Homo sapiens, UniProt Q969M7, K97A/K99A/R121A); test: thermal shift assay with Western blotting; format: binding; conditions: V98 pocket mutant
T1 construct: recombinant, pET-28a with His-SUMO tag cleaved by Ulp1 (un-tagged), expressed in E. coli Rosetta 2(DE3) pLysS
T1 sequence (Q969M7 1-185 K97A/K99A/R121A): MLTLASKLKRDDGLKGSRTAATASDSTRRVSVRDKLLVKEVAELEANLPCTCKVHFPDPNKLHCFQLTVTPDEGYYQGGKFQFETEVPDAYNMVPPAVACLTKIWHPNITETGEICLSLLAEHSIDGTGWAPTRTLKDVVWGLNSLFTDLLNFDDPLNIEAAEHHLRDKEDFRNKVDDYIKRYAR

UBE2F [2] = molecular target: T2, UBE2F (Homo sapiens, UniProt Q969M7); test: differential scanning fluorimetry, SYPRO orange; format: binding; conditions: tested as mesylate salt; 2 μM UBE2F, 1 °C/min from 25 to 95 °C; maximum of a dose series (printed 'up to')
T2 construct: recombinant, pET-28a with His-SUMO tag cleaved by Ulp1 (un-tagged), expressed in E. coli Rosetta 2(DE3) pLysS
T2 sequence (Q969M7 1-185): T1 sequence (Q969M7 1-185 K97A/K99A/R121A) with A97K, A99K, A121R

UBE2F [3] = molecular target: T2, UBE2F; test: E2 NEDD8 thioester assay, iFluor 680-NEDD8, SDS-PAGE fluorescence scan; format: biochemical
UBE2F [4] = molecular target: T3, UBE2F (Homo sapiens, UniProt Q969M7, F153A/D154A/H165A); test: thermal shift assay with Western blotting; format: binding; conditions: N152 pocket mutant
T3 construct: recombinant, pET-28a with His-SUMO tag cleaved by Ulp1 (un-tagged), expressed in E. coli Rosetta 2(DE3) pLysS
T3 sequence (Q969M7 1-185 F153A/D154A/H165A): T1 sequence (Q969M7 1-185 K97A/K99A/R121A) with A97K, A99K, A121R, F153A, D154A, H165A

## Cc1ccc(C(=O)N2CCN(c3ccc(NC(=O)/C=C/c4c[nH]c5ncccc45)cc3)CC2)cc1 [iV26-9-10-4, HA-9104]
UBE2F [1]
  thermal stabilization: V98 mutant was a little more thermo-stable and less stabilized by HA-9104
UBE2F [2]
  dTm: ~ 4 °C
UBE2F [3]
  IC50: ~49 µM
UBE2F [4]
  thermal stabilization: N152 mutant was very thermo-stable and largely resistant to HA-9104-induced stabilization
